Patent US6512000B1, “Aminocarbonyl-substituted benzimidazoles having tryptase-inhibitory activity” (Boehringer Ingelheim Pharma KG, priority 1999, dated 2003)
Counter-ions that a name gives are not always drawn.

Target: T1, rh beta tryptase (Homo sapiens, UniProt P20231)
T1 construct: purchased Promega
Assay: Tryptase inhibition test (cleavage of N-p-tosyl-Gly-Pro-Lys-para-nitroaniline, p-nitroaniline measured at 405 nm)
Type: biochemical
Settings: pH 7.4, 37° C.; for IC50: concentration at which 50% of the tryptase enzyme activity is inhibited, substrate 0.6 mM; for % Inhibition (10 μM) / inhibition at 10 µM: inhibition of rh beta tryptase at 10 μM test substance, substrate N-p-tosyl-Gly-Pro-Lys-para-nitroaniline 0.6 mM, 5 minutes
Description: The compounds according to the invention are characterised by their tryptase-inhibiting activity. This ability to inhibit tryptase was investigated using the test described below.
The measurement is carried out in Tris HCl buffer (100 mM), which additionally contains calcium (5 mM) and heparin ([…]), at pH 7.4. The standard used is rh beta tryptase which may be obtained commercially from Promega, for example. The substrate used is N-p-tosyl-Gly-Pro-Lys-para-nitroaniline in a concentration of 0.6 mM. The substrate is digested with tryptase to form p-nitroaniline which can be measured at 405 nm. Usually, an incubation period of 5 minutes and an incubation temperature of 37° C. are chosen. The enzyme activity used is 0.91 U/ml. The measurements are carried out in an Autoanalyser (Cobas Bio) made by Hofmann LaRoche. The potential inhibitory substances are used in concentrations of 10 μM in the screening, the inhibition of the tryptase being given in percent. The IC50 is determined at over 70% inhibition (concentration at which 50% of the enzyme activity is inhibited). After 5 minutes' pre-incubation of the potential inhibitory substances, the substrate is added to start the reaction, the formation of p-nitroaniline being taken as a measurement of the enzyme activity after 5 minutes, after testing the linearity.
The data obtained after the above test has been carried out (% inhibition) are assembled in Table 25 for the compounds according to the invention. The IC50 values obtained for the compounds according to the invention can be found in Table 26.
Table 26 contains the IC50 binding values obtained for the compounds according to the invention. These were measured as described above.

T1 sequence (P20231 31-275): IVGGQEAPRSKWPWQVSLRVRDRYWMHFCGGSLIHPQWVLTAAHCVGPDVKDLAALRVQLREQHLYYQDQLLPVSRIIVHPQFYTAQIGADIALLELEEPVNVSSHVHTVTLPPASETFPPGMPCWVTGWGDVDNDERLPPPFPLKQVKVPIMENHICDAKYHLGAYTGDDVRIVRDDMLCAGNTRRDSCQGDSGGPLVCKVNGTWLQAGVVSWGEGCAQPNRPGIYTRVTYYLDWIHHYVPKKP

IC50 [nM]	inhibition at 10 µM [%]	Molecule	other results
158	–	CCOC(=O)C(Cc1ccc(C(=N)N)cc1)N(C)C(=O)c1ccc2c(c1)nc(CCc1ccc(C(=N)N)cc1)n2C (stereo not shown) [Example 29, Ethyl 2-{2-[2-(4-Amidinophenyl)-ethyl]-1-methyl-benzimidazol-5-yl-carbonyl-(methylamino)}-3-(4-amidinophenyl)-propionate-formate]	–
316	–	Cn1c(CCc2ccc(C(=N)N)cc2)nc2cc(C(=O)N(CCC(=N)N)Cc3cccnc3)ccc21 [Example 10, 2-[2-(4-Amidinophenyl)-ethyl]-1-methyl-benzimidazol-5-yl-carboxylic Acid-N-(2-amidinoethyl)-N-(3-pyridylmethyl)-amide-dihydrochloride]	–
–	–	2-[2-(4-amidinophenyl)ethyl]-1-[3-(morpholin-4-yl)-propyl]-benzimidazol-5-yl-carboxylic acid-N-[4-(amino-methyl)-benzyl]-N-(2-fluorobenzyl)-amide [Example 225]	% Inhibition (10 μM): 58%
–	53	N=C(N)c1ccc(CCc2nc3cc(C(=O)N(Cc4ccc(CN)cc4)Cc4ccc5ccccc5c4)ccc3n2CCC2CCCCC2)cc1 [Example 233, 2-[2-(4-amidinophenyl)ethyl]-1-(2-cyclohexylethyl)-benzimidazol-5-yl-carboxylic acid-N-[4-(amino-methyl)-benzyl]-N-(2-naphthylmethyl)-amide]	–
310	–	Cn1c(CCc2ccc(C(=N)N)cc2)nc2cc(C(=O)N(CCC(=N)N)c3ccc4ccccc4c3)ccc21 [Example 20, 2-[2-(4-Amidinophenyl)-ethyl]-1-methyl-benzimidazol-5-yl-carboxylic Acid-N-(2-amidinoethyl)-N-(2-naphthyl)-amide-dihydrochloride]	–
–	67	CCCCN(Cc1ccc(CN)cc1)C(=O)c1ccc2c(c1)nc(CCc1ccc(C(=N)N)cc1)n2CC1CCCO1 (stereo not shown) [Example 98, 2-[2-(4-amidinophenyl)ethyl]-1-(tetrahydrofuran-2-yl-methyl)-benzimidazol-5-yl-carboxylic acid-N-[4-(amino-methyl)-benzyl]-N-n-butyl-amide]	–
760	–	N=C(N)c1ccc(CCc2nc3cc(C(=O)N(Cc4ccc(CN)cc4)Cc4ccc5ccccc5c4)ccc3n2CC2CC2)cc1 [Example 234, 2-[2-(4-amidinophenyl)ethyl]-1-cyclopropylmethyl-benzimidazol-5-yl-carboxylic acid-N-[4-(amino-methyl)-benzyl]-N-(2-naphthylmethyl)-amide]	–
–	–	2-[2-(4-amidinophenyl)ethyl]-1-[2-(4-chlorophenyl)ethyl]-benzimidazol-5-yl-carboxylic acid-N-[4-(amino-methyl)-benzyl]-N-(2-pyridyl)-amide [Example 124]	% Inhibition (10 μM): 55%
51	–	Cn1c(CCc2ccc(C(=N)N)cc2)nc2cc(C(=O)N(CCC(=N)N)c3ccccc3)ccc21 [Example 21, 2-[2-(4-Amidinophenyl)-ethyl]-1-methyl-benzimidazol-5-yl-carboxylic Acid-N-(2-amidinoethyl)-N-phenyl-amide-dihydrochloride]	–
–	52	N=C(N)c1ccc(CCc2nc3cc(C(=O)N(CCCc4ccccc4)Cc4ccc(CN)cc4)ccc3n2CCC2CCCCC2)cc1 [Example 169, 2-[2-(4-amidinophenyl)ethyl]-1-(2-cyclohexylethyl)-benzimidazol-5-yl-carboxylic acid-N-[4-(amino-methyl)-benzyl]-N-(3-phenylpropyl)-amide]	–
–	–	2-[2-(4-amidinophenyl)ethyl]-1-{3-[4-(2-methylphenyl)-piperazin-1-yl]-propyl}-benzimidazol-5-yl-carboxylic acid-N-[4-(amino-methyl)-benzyl]-N-(2-pyridyl)-amide [Example 128]	% Inhibition (10 μM): 51%
67	–	Cn1c(CCc2ccc(C(=N)N)cc2)nc2cc(C(=O)N(CCNCc3ccccc3)C3CCCCC3)ccc21 [Example 36, 2-[2-(4-Amidinophenyl)-ethyl]-1-methyl-benzimidazol-5-yl-carboxylic Acid-[N-(2-(N′-benzylamino)-ethyl)-N-cyclohexyl-amide]-dihydrochloride]	–
431	–	2-[2-(4-amidinophenyl)ethyl]-1-cyclopropylmethyl-benzimidazol-5-yl-carboxylic acid-N-[4-(amino-methyl)-benzyl]-N-(3-pyridyl)-amide [Example 138]	% Inhibition (10 μM): 72%
571	–	CN(Cc1ccc(N(C)C)cc1)C(=O)c1ccc2c(c1)nc(CCc1ccc(C(=N)N)cc1)n2C [Example 6, 2-[2-(4-Amidinophenyl)-ethyl]-1-methyl-benzimidazol-5-yl-carboxylic Acid-N-(4-dimethylaminobenzyl)-N-methyl-amide-hydrochloride]	–
–	–	CCCCN(CCCC)CCCn1c(CCc2ccc(C(=N)N)cc2)nc2cc(C(=O)N(CCN)Cc3ccc(Cl)cc3)ccc21 [Example 375, 2-[2-(4-amidinophenyl)ethyl]-1-(3-di-n-butylaminopropyl)-benzimidazol-5-yl-carboxylic acid-N-(2-aminoethyl)-N-(4-chlorbenzyl)-amide]	% Inhibition (10 μM): 58%
55	–	Cn1c(CCc2ccc(C(=N)N)cc2)nc2cc(C(=O)N(CCC(=N)N)C3CCCCCCC3)ccc21 [Example 25, 2-[2-(4-Amidinophenyl)-ethyl]-1-methyl-benzimidazol-5-yl-carboxylic Acid-N-(2-amidinoethyl)-N-cyclooctyl-amide-dihydrochloride]	–
–	57	COc1cccc(CN(CCN)C(=O)c2ccc3c(c2)nc(CCc2ccc(C(=N)N)cc2)n3CC2CCCO2)c1 (stereo not shown) [Example 274, 2-[2-(4-amidinophenyl)ethyl]-1-(tetrahydrofuran-2-yl-methyl)-benzimidazol-5-yl-carboxylic acid-N-(2-aminoethyl)-N-(3-methoxybenzyl)-amide]	–
–	58	N=C(N)c1ccc(CCc2nc3cc(C(=O)N(CCN)CC4CCCCC4)ccc3n2CC2CCCO2)cc1 (stereo not shown) [Example 354, 2-[2-(4-amidinophenyl)ethyl]-1-(tetrahydrofuran-2-yl-methyl)-benzimidazol-5-yl-carboxylic acid-N-(2-aminoethyl)-N-cyclohexylmethyl-amide]	–
–	–	2-[2-(4-amidinophenyl)ethyl]-1-(4-methylbenzyl)-benzimidazol-5-yl-carboxylic acid-N-[4-(amino-methyl)-benzyl]-N-(2-pyridyl)-amide [Example 125]	% Inhibition (10 μM): 63%
479	–	Cn1c(CCc2ccc(C(=N)N)cc2)nc2cc(C(=O)NCCCc3ccccc3)ccc21 [Example 12, 2-[2-(4-Amidinophenyl)-ethyl]-1-methyl-benzimidazol-5-yl-carboxylic Acid-N-(3-phenylpropyl)-amide-hydrochloride]	–
–	53	COC(=O)c1ccc(CN(Cc2ccc(CN)cc2)C(=O)c2ccc3c(c2)nc(CCc2ccc(C(=N)N)cc2)n3CCc2ccc(Cl)cc2)cc1 [Example 444, 2-[2-(4-amidinophenyl)ethyl]-1-[2-(4-chlorophenyl)ethyl]-benzimidazol-5-yl-carboxylic acid-N-[4-(amino-methyl)-benzyl]-N-[4-(methoxycarbonyl)-benzyl]-amide]	–
113	–	Cn1c(CCc2ccc(C(=N)N)cc2)nc2cc(C(=O)NCCNc3ccccc3)ccc21 [Example 38, 2-[2-(4-Amidinophenyl)-ethyl]-1-methyl-benzimidazol-5-yl-carboxylic Acid-N-(2-phenylamino-ethyl)-amide-dihydrochloride]	–
–	56	CCCCN(Cc1ccc(CN)cc1)C(=O)c1ccc2c(c1)nc(CCc1ccc(C(=N)N)cc1)n2Cc1ccc(C)cc1 [Example 93, 2-[2-(4-amidinophenyl)ethyl]-1-(4-methylbenzyl)-benzimidazol-5-yl-carboxylic acid-N-[4-(amino-methyl)-benzyl]-N-n-butyl-amide]	–
–	–	2-[2-(4-amidinophenyl)ethyl]-1-[3-(morpholin-4-yl)-propyl]-benzimidazol-5-yl-carboxylic acid-N-[4-(amino-methyl)-benzyl]-N-(3-pyridyl)-amide [Example 145]	% Inhibition (10 μM): 73%
–	57	N=C(N)c1ccc(CCc2nc3cc(C(=O)N(CCN)CCCc4ccccc4)ccc3n2CCCN2CCOCC2)cc1 [Example 369, 2-[2-(4-amidinophenyl)ethyl]-1-[3-(morpholin-4-yl)-propyl]-benzimidazol-5-yl-carboxylic acid-N-(2-aminoethyl)-N-(3-phenylpropyl)-amide]	–
312	–	CN(C(=O)c1ccc2c(c1)nc(CCc1ccc(C(=N)N)cc1)n2C)c1cccnc1 [Example 18, 2-[2-(4-Amidinophenyl)-ethyl]-1-methyl-benzimidazol-5-yl-carboxylic Acid-N-methyl-N-(3-pyridyl)-amide-hydrochloride]	–
–	58	CCCCN(Cc1ccc(CN)cc1)C(=O)c1ccc2c(c1)nc(CCc1ccc(C(=N)N)cc1)n2Cc1cccs1 [Example 99, 2-[2-(4-amidinophenyl)ethyl]-1-(2-thiophenyl-methyl)-benzimidazol-5-yl-carboxylic acid-N-[4-(amino-methyl)-benzyl]-N-n-butyl-amide]	–
